From patent publication US20240317792A1, “CYCLIC DINUCLEOTIDE METAL COMPOUND, AND PREPARATION AND APPLICATION THEREOF” (HANGZHOU XINGAO BIOTECHNOLOGY CO., LTD., priority 2022, published 2024)

What was measured:
Type in all cases: in vivo
[1] = tested on: ICR mice with ischemic cerebrovascular injury; assay: MCAO ischemic cerebrovascular injury model, Zea longa behavioral score; set-up: key: Zea longa: 0 = no neurological deficit, 4 = no spontaneous walking; conditions: 10 mg/kg intraperitoneal, Zea longa 5-point score
Method: Experimental animals: healthy male Institute of Cancer Research (ICR) mice, weighing 18-20 grams, purchased from Shanghai SLAC Laboratory Animal Co. Ltd, with quality certificate No. (SCXK (Shanghai) 2007-0005), and kept in clean animal houses.
Mouse model: an ischemic cerebrovascular injury model was prepared by a middle cerebral artery occlusion (MCAO) method to verify therapeutic effect of the cyclic dinucleotide metal compounds on ischemic cerebrovascular diseases in the experimental animals.
Experimental method: the ICR mice were anesthetized with 10 wt. % of chloral hydrate by intraperitoneal injection, a mid-cervical incision was made to isolate and ligate a proximal segment, a carotid artery and a branch vessel of a right common carotid artery. A right internal carotid artery was isolated, a pterygoid artery was isolated down along the right internal carotid artery followed by root ligation. A wire was prepared on the proximal segment, and an arterial clip was placed on a distal segment. An incision was made at a branch of the right common carotid artery, and a nylon wire was tied in. A monofilament entered the internal carotid artery, a cranium to an anterior cerebral artery to block all sources of blood flow in a middle cerebral artery. The arterial clip was removed, and the wire prepared on the proximal segment was tied in followed by skin suture. The experimental animals were subjected to cage culture after operation. 2 h after the ischemia, the experimental animals were subjected to abdominal administration by injection, and the nylon wire was removed for reperfusion. 8 h after the reperfusion, the experimental animals were subjected to re-administration. After the operation, behavioral score was performed using a single-blind method with reference to the Zea longa 5-point scoring system, which was shown as follows: 0 point, normal performance with no neurological deficits; 1 point, contralateral forepaws could not fully extend; 2 points, circling to the opposite side when walking; 3 points, falling to the opposite side; 4 points, no spontaneous walking and loss of consciousness.
In the experiment, the ICR mice were divided into 7 groups (10 mice in each group). The 7 groups were listed as follows: A: AD model group, as a negative control group (administration: normal saline); B: cGAMP group, as a positive control group (administration: cyclic dinucleotide); C: [Li2(cGAMP)] group (administration: lithium cyclic dinucleotide prepared in Example 1); D: [Mg(cGAMP)] group (administration: magnesium cyclic dinucleotide prepared in Example 2); E: [Zn(cGAMP)] group (administration: zinc cyclic dinucleotide prepared in Example 5); F: [Mn(cGAMP)] group (administration: manganese cyclic dinucleotide prepared in Example 3); G: [Fe(cGAMP)] group (administration: ferrous cyclic dinucleotide prepared in Example 4); where a preparation method for administration in groups C-G were as follows. Powders prepared in the groups C-G were prepared to solutions of required concentration with normal saline. The administration dosage of every group was 10 mg/kg. And the ICR mice were administered by intraperitoneal injection. The ICR mice were administered once after 2 h of ischemia, then the nylon wire was removed for reperfusion. 8 h after the reperfusion, the ICR mice were administered once. After 24 h, the ICR mice were administered once a day for 7 consecutive days.

[2] = tested on: amyloid plaques in the brains of the AD model mice; assay: Thioflavin S dyeing of amyloid plaque deposition in brains of AD model mice; conditions: 10 mg/kg intraperitoneal once every 2 days, 60 days
Excerpt: (§1) Experimental materials, purchased from Shanghai Model Organisms Center Inc, were APP/PSI transgenic AD model mice, aged 4 months old and weighing 24-26 g. The AD model mice were randomly divided into 7 groups (10 mice in each group). The 7 groups were listed as follows: A: AD model group, as a negative control group (administration of normal saline); B: cGAMP group, as a positive control group (administration of cyclic dinucleotide); C: [Li2(cGAMP)] group (administration of lithium cyclic dinucleotide prepared in Example 1); D: [Mg(cGAMP)] group (administration of magnesium cyclic dinucleotide prepared in Example 2); E: [Zn(cGAMP)] group (administration of zinc cyclic dinucleotide prepared in Example 5); F: [Mn(cGAMP)] group (administration of manganese cyclic dinucleotide prepared in Example 3); G: [Fe(cGAMP)] group (administration of ferrous cyclic dinucleotide prepared in Example 4). The administration in groups C-G was performed as follows. The powdered cyclic dinucleotide metal compounds were prepared into solutions of required concentration with normal saline, respectively. The administration dosage was 10 mg/kg, and the administration was performed via intraperitoneal injection once every 2 days for 60 consecutive days.
This example conducted a Thioflavin S dyeing experiment including the following steps. 60 days after the drug administration, brain tissues of the AD model mice were taken and subjected to fixing, paraffin embedding, section, dimethylbenzene dewaxing, gradient dehydration with ethanol and washing with tris buffered saline (TBS) three times. 0.3 wt. % of Thioflavin S (dissolved in 50 wt. % of ethanol) was dropped onto the brain tissues. The brain tissues were incubated for 10 min followed by washing with 50 wt. % of ethanol, PBS-washing, shade drying and sealing. A laser scanning confocal microscope (Leica, Germany) was used to detect changes of an amount of amyloid plaque deposition in the brains of the AD model mice.

[3] = tested on: APP/PSI transgenic AD model mice; assay: Morris water maze spatial probe test, cognitive ability of AD model mice; conditions: 10 mg/kg intraperitoneal injection once every 2 days for 60 days
Excerpt: as §1
The Morris water maze test was performed in a round pool, 1 m in diameter, 50 cm high and 30 cm deep with a white bottom of the pool. Water temperature of the Morris water maze was 23±2° C. Four equidistant points, N, E, S and W, were marked on a pool wall as four starting points for tests. The pool was divided into four quadrants, and a platform, which was equidistant from the pool wall and a center of the pool, was placed in the third quadrant. The platform was immersed under water at a depth of 1 cm, so that the platform was not visible. A lot of reference clues (the reference clues were triangles, quadrangles, circles, and diamonds with different colors placed in each quadrant) were pasted around the pool and kept constant for the AD model mice to locate the platform.
A place navigation test was performed for 6 days, and the AD model mice were subjected to training 4 times per day at fixed time spans. At the beginning of the training, the platform was placed in the […]. An AD model mouse was placed into the water facing the pool wall at any one of the four starting points. A record system was used to record time and a swimming path that the AD model mouse found the platform. The AD model mouse was placed into the water at different four starting points (in different quadrants) in the 4-time-training. The AD model mouse found the platform and rested on the platform for 10 seconds followed by next test. Or if the AD model mouse could not find the platform within 90 seconds (a latency was recorded as 90 seconds), the AD model mouse was guided to the platform by an experimenter and rested for 10 seconds followed by next test.
24 h after the place navigation test, the platform was removed. Then the AD model mouse was placed into the water in the third quadrant, the swimming path in 180 s was recorded. Remain time and a number of the AD model mouse crossing through a location of the platform of the AD model mouse in a target quadrant (the third quadrant) were recorded to observe the spatial localization ability of the AD model mouse. SPSS10.0 software was used to process, and one-way analysis of variance (ANOVA) was adopted to compare significance of difference between the 7 groups.

Nc1nc2c(ncn2C2OC3COP(=O)([O-])OC4C(COP(=O)([O-])OC2C3O)OC(n2cnc3c(N)ncnc32)C4O)c(=O)[nH]1.[Fe+2] (stereo not drawn) [[Fe(cGAMP)], ferrous cyclic dinucleotide]
Score (7 h after operation) [1]: 1.41 ± 0.29 | Score (24 h after operation) [1]: 1.67 ± 0.35 | Average points of amyloid plaque fluorescence intensity in the brain tissues of the AD mice (field of vision) [2]: 410 ± 91 | Percentage of time of the AD model mice crossing through the platform in the third quadrant [3]: 0.81 ± 0.23%

Nc1nc2c(ncn2[C@@H]2O[C@@H]3COP(=O)(O)O[C@H]4[C@@H](O)[C@H](n5cnc6c(N)ncnc65)O[C@@H]4COP(=O)(O)O[C@@H]2[C@@H]3O)c(=O)[nH]1 [cGAMP, 2′3′-cGAMP, reference compound]
Score (7 h after operation) [1]: 1.67 ± 0.41 | Score (24 h after operation) [1]: 2.15 ± 0.32 | Average points of amyloid plaque fluorescence intensity in the brain tissues of the AD mice (field of vision) [2]: 1790 ± 180 | Percentage of time of the AD model mice crossing through the platform in the third quadrant [3]: 0.62 ± 0.17%

Nc1nc2c(ncn2[C@@H]2O[C@@H]3COP(=O)([O-])O[C@H]4[C@@H](O)[C@H](n5cnc6c(N)ncnc65)O[C@@H]4COP(=O)([O-])O[C@@H]2[C@@H]3O)c(=O)[nH]1.[Mg+2] [[Mg(cGAMP)], magnesium cyclic dinucleotide]
Score (7 h after operation) [1]: 1.09 ± 0.18 | Score (24 h after operation) [1]: 1.18 ± 0.24 | Average points of amyloid plaque fluorescence intensity in the brain tissues of the AD mice (field of vision) [2]: 480 ± 80 | Percentage of time of the AD model mice crossing through the platform in the third quadrant [3]: 0.78 ± 0.10%

Nc1nc2c(ncn2C2OC3COP(=O)([O-])OC4C(COP(=O)([O-])OC2C3O)OC(n2cnc3c(N)ncnc32)C4O)c(=O)[nH]1.[Mn+2] (stereo not drawn) [[Mn(cGAMP)], manganese cyclic dinucleotide]
Score (7 h after operation) [1]: 1.38 ± 0.27 | Score (24 h after operation) [1]: 1.62 ± 0.39 | Average points of amyloid plaque fluorescence intensity in the brain tissues of the AD mice (field of vision) [2]: 390 ± 87 | Percentage of time of the AD model mice crossing through the platform in the third quadrant [3]: 0.83 ± 0.21%

Nc1nc2c(ncn2[C@@H]2O[C@@H]3COP(=O)([O-])O[C@H]4[C@@H](O)[C@H](n5cnc6c(N)ncnc65)O[C@@H]4COP(=O)([O-])O[C@@H]2[C@@H]3O)c(=O)[nH]1.[Li+].[Li+] [[Li2(cGAMP)], lithium cyclic dinucleotide]
Score (7 h after operation) [1]: 1.49 ± 0.26 | Score (24 h after operation) [1]: 1.82 ± 0.19 | Average points of amyloid plaque fluorescence intensity in the brain tissues of the AD mice (field of vision) [2]: 165 ± 75 | Percentage of time of the AD model mice crossing through the platform in the third quadrant [3]: 0.91 ± 0.18%

Nc1nc2c(ncn2[C@@H]2O[C@@H]3COP(=O)([O-])O[C@H]4[C@@H](O)[C@H](n5cnc6c(N)ncnc65)O[C@@H]4COP(=O)([O-])O[C@@H]2[C@@H]3O)c(=O)[nH]1.[Zn+2] [[Zn(cGAMP)], zinc cyclic dinucleotide]
Score (7 h after operation) [1]: 1.31 ± 0.15 | Score (24 h after operation) [1]: 1.57 ± 0.38 | Average points of amyloid plaque fluorescence intensity in the brain tissues of the AD mice (field of vision) [2]: 360 ± 75 | Percentage of time of the AD model mice crossing through the platform in the third quadrant [3]: 0.86 ± 0.16%
